Data as given in patent publication US20220089568A1 (Janssen Biotech, Inc., priority 2019, published 2022).

Experiments:
human DHODH = target: T1, human DHODH (Homo sapiens, UniProt Q02127); assay: DHODH Enzymatic Assay; type: biochemical; conditions: purified human DHODH; DCIP absorbance, end-point mode
T1 construct: purchased Proteros PR-0044
Method: To detect DHODH enzyme activities, dichloroindophenol (DCIP) is added as the final electron acceptor in the assay. DCIP can accept electrons from the reduced coenzyme Q generated in the assay, or from dihydroorotate (DHO) via FMN by binding presumably to the ubiquinone pocket. […] The assay buffer contained […], pH 7.5, 150 mM NaCl, 0.5 mM EDTA, and 0.1% Triton X-100 in MilliQ water. Substrate consisting of 20 mM DHO, 5 mM CoQ6, and 1 mM DCIP in assay buffer, initiates the reaction. […] Absorbance measurements were obtained using the BMG Phera Star plate-reading spectrophotomer. Purified human DHODH was purchased from Proteros (cat. No. PR-0044). Chemicals were purchased from Sigma-Aldrich, Teknova, and Avanti Polar Lipids. Liquid handling was performed using Labcyte Echo and Formulatrix Tempest.

MOLM-13 cells = assay: MOLM-13 Cellular Assay; type: cell-based; conditions: Homo sapiens, 72 hours exposure, cell viability by CellTiter-Glo
Method: The day prior to assay set-up, cells were pelleted, resuspended in fresh media, counted, and cells were plated at 0.4×10^6 cell/mL in a T150 flask. […] Cells were exposed to different concentrations of test compounds at 37° C., 5% CO2 for 72 hours immediately after seeding.

T1 sequence (Q02127 whole entry): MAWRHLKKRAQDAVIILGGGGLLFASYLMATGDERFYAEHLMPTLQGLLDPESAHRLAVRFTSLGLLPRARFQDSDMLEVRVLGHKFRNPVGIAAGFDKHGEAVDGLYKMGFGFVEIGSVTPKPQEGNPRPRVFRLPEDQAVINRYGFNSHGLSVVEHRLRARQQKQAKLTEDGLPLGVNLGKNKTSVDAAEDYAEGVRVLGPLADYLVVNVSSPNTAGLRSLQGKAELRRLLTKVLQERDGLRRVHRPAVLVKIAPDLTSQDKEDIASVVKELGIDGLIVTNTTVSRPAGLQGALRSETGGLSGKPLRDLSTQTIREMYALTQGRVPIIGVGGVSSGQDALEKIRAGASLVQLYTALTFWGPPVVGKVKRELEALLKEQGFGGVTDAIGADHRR

| EC50 (human DHODH) [nM] | EC50 (MOLM-13 cells) [nM] | SMILES |
| --- | --- | --- |
| 0.761 | 0.553 | CCn1c(CO)nn(-c2nc(O[C@@H](C)C(F)(F)F)c(C(=O)Nc3cc(C)ccc3Cl)cc2F)c1=O [Example 48, (S)-N-(2-Chloro-5-methylphenyl)-6-(4-ethyl-3-(hydroxymethyl)-5-oxo-4,5-dihydro-1H-1,2,4-triazol-1-yl)-5-fluoro-2-((1,1,1-trifluoropropan-2-yl)oxy)nicotinamide] |
| 91.4 | 41.6 | CCn1c(CO)nn(-c2nc(O[C@@H](C)C(F)(F)F)c(C(=O)Nc3cc(OC)ncc3Cl)cc2F)c1=O [Example 98, N-(5-Chloro-2-methoxy-4-pyridyl)-6-[4-ethyl-3-(hydroxymethyl)-5-oxo-1,2,4-triazol-1-yl]-5-fluoro-2-[(1S)-2,2,2-trifluoro-1-methyl-ethoxy]pyridine-3-carboxamide] |
| 1.9 | 5.3 | CCn1c(CO)nn(-c2nc(O[C@@H](C)C(F)(F)F)c(C(=O)Nc3c(Cl)ccnc3C)cc2F)c1=O [Example 79, N-(4-Chloro-2-methyl-3-pyridyl)-6-[4-ethyl-3-(hydroxymethyl)-5-oxo-1,2,4-triazol-1-yl]-5-fluoro-2-[(1S)-2,2,2-trifluoro-1-methyl-ethoxy]pyridine-3-carboxamide] |
| 1.2 | 2 | CCn1c(CO)nn(-c2nc(O[C@@H](C)C(F)(F)F)c(C(=O)Nc3c(C)ccnc3Cl)cc2F)c1=O [Example 5, (S)-N-(2-Chloro-4-methylpyridin-3-yl)-6-(4-ethyl-3-(hydroxymethyl)-5-oxo-4,5-dihydro-1H-1,2,4-triazol-1-yl)-5-fluoro-2-((1,1,1-trifluoropropan-2-yl)oxy)nicotinamide] |
| 4.7 | 7.7 | CCn1c(CO)nn(-c2nc(O[C@@H](C)C(F)(F)F)c(C(=O)Nc3cnccc3Cl)cc2F)c1=O [Example 27, (S)-N-(4-Chloropyridin-3-yl)-6-(4-ethyl-3-(hydroxymethyl)-5-oxo-4,5-dihydro-1H-1,2,4-triazol-1-yl)-5-fluoro-2-((1,1,1-trifluoropropan-2-yl)oxy)nicotinamide] |
| 20.5 | 7.23 | Cc1ccnc(Cl)c1NC(=O)c1cc(F)c(-n2nc(CF)n(CCO)c2=O)nc1O[C@@H](C)C(F)(F)F [Example 116, N-(2-Chloro-4-methyl-3-pyridyl)-5-fluoro-6-[3-(fluoromethyl)-4-(2-hydroxyethyl)-5-oxo-1,2,4-triazol-1-yl]-2-[(1S)-2,2,2-trifluoro-1-methyl-ethoxy]pyridine-3-carboxamide] |
| 2.4 | 4.3 | CCn1c(CO)nn(-c2nc(O[C@@H](C)C(F)(F)F)c(C(=O)Nc3c(C)ccnc3F)cc2F)c1=O [Example 42, (S)-6-(4-Ethyl-3-(hydroxymethyl)-5-oxo-4,5-dihydro-1H-1,2,4-triazol-1-yl)-5-fluoro-N-(2-fluoro-4-methylpyridin-3-yl)-2-((1,1,1-trifluoropropan-2-yl)oxy)nicotinamide] |
| 30.9 | 87.9 | CCn1c(CO)nn(-c2nc(O[C@@H](C)C(F)(F)F)c(C(=O)Nc3csnc3C)cc2F)c1=O [Example 17, (S)-6-(4-Ethyl-3-(hydroxymethyl)-5-oxo-4,5-dihydro-1H-1,2,4-triazol-1-yl)-5-fluoro-N-(3-methylisothiazol-4-yl)-2-((1,1,1-trifluoropropan-2-yl)oxy)nicotinamide] |
| 0.415 | 0.368 | CCn1c(CO)nn(-c2nc(O[C@@H](C)C(F)(F)F)c(C(=O)Nc3c(C)cc(C)nc3OC)cc2F)c1=O [Example 114, 6-[4-Ethyl-3-(hydroxymethyl)-5-oxo-1,2,4-triazol-1-yl]-5-fluoro-N-(2-methoxy-4,6-dimethyl-3-pyridyl)-2-[(1S)-2,2,2-trifluoro-1-methyl-ethoxy]pyridine-3-carboxamide] |
| 0.91 | 1.1 | CCn1c(CO)nn(-c2nc(O[C@@H](C)C(F)(F)F)c(C(=O)Nc3c(C)cnc(OC)c3C)cc2F)c1=O [Example 85, 6-[4-Ethyl-3-(hydroxymethyl)-5-oxo-1,2,4-triazol-1-yl]-5-fluoro-N-(2-methoxy-3,5-dimethyl-4-pyridyl)-2-[(1S)-2,2,2-trifluoro-1-methyl-ethoxy]pyridine-3-carboxamide] |
| 360 | > 100 | CCn1c(CO)nn(-c2nc(O[C@@H](C)C(F)(F)F)c(C(=O)Nc3nccnc3OC)cc2F)c1=O [Example 34, (S)-6-(4-Ethyl-3-(hydroxymethyl)-5-oxo-4,5-dihydro-1H-1,2,4-triazol-1-yl)-5-fluoro-N-(3-methoxypyrazin-2-yl)-2-((1,1,1-trifluoropropan-2-yl)oxy)nicotinamide] |
| 1.07 | 0.416 | CCn1c(CO)nn(-c2nc(O[C@@H](C)C(F)(F)F)c(C(=O)Nc3c(C)cc(Cl)nc3OC)cc2F)c1=O [Example 113, N-(6-Chloro-2-methoxy-4-methyl-3-pyridyl)-6-[4-ethyl-3-(hydroxymethyl)-5-oxo-1,2,4-triazol-1-yl]-5-fluoro-2-[(1S)-2,2,2-trifluoro-1-methyl-ethoxy]pyridine-3-carboxamide] |
| 2.2 | 3.3 | CCn1c(CO)nn(-c2nc(O[C@@H](C)C(F)(F)F)c(C(=O)Nc3c(C)ccnc3C(F)F)cc2F)c1=O [Example 13, (S)-N-(2-(Difluoromethyl)-4-methylpyridin-3-yl)-6-(4-ethyl-3-(hydroxymethyl)-5-oxo-4,5-dihydro-1H-1,2,4-triazol-1-yl)-5-fluoro-2-((1,1,1-trifluoropropan-2-yl)oxy)nicotinamide] |
| 4.22 | 0.938 | CCn1c(C(C)O)nn(-c2nc(O[C@@H](C)C(F)(F)F)c(C(=O)Nc3c(C)n[nH]c3C(F)(F)F)cc2F)c1=O (mixture of isomers) [Example 127, (Racemic)-6-[4-Ethyl-3-(1-hydroxyethyl)-5-oxo-1,2,4-triazol-1-yl]-5-fluoro-N-[3-methyl-5-(trifluoromethyl)-1H-pyrazol-4-yl]-2-(2,2,2-trifluoro-1-methyl-ethoxy)pyridine-3-carboxamide] |
| 5.6 | 21.1 | CCn1c(CO)nn(-c2nc(O[C@@H](C)C(F)(F)F)c(C(=O)Nc3c(C)cncc3F)cc2F)c1=O [Example 71, (S)-6-(4-Ethyl-3-(hydroxymethyl)-5-oxo-4,5-dihydro-1H-1,2,4-triazol-1-yl)-5-fluoro-N-(3-fluoro-5-methylpyridin-4-yl)-2-((1,1,1-trifluoropropan-2-yl)oxy)nicotinamide] |
| 1.15 | 1.06 | CCn1c(CF)nn(-c2nc(OC(C)C)c(C(=O)Nc3c(C)ccnc3Cl)cc2F)c1=O [Example 97, N-(2-Chloro-4-methyl-3-pyridyl)-6-[4-ethyl-3-(fluoromethyl)-5-oxo-1,2,4-triazol-1-yl]-5-fluoro-2-isopropoxy-pyridine-3-carboxamide] |
| 0.5 | 0.219 | CCn1c(CO)nn(-c2nc(OC(C)C)c(C(=O)Nc3c(F)cccc3Cl)cc2F)c1=O [Example 7, N-(2-Chloro-6-fluorophenyl)-6-(4-ethyl-3-(hydroxymethyl)-5-oxo-4,5-dihydro-1H-1,2,4-triazol-1-yl)-5-fluoro-2-isopropoxynicotinamide] |
| 233 | > 100 | CCn1c(CO)nn(-c2nc(O[C@@H](C)C(F)(F)F)c(C(=O)Nc3snc(C)c3Br)cc2F)c1=O [Example 31, (S)-N-(4-Bromo-3-methylisothiazol-5-yl)-6-(4-ethyl-3-(hydroxymethyl)-5-oxo-4,5-dihydro-1H-1,2,4-triazol-1-yl)-5-fluoro-2-((1,1,1-trifluoropropan-2-yl)oxy)nicotinamide] |
| 6.62 | 7.59 | CCn1c(CO)nn(-c2nc(O[C@@H](C)C(F)(F)F)c(C(=O)Nc3nccc(OC)c3Cl)cc2F)c1=O [Example 104, N-(3-Chloro-4-methoxy-2-pyridyl)-6-[4-ethyl-3-(hydroxymethyl)-5-oxo-1,2,4-triazol-1-yl]-5-fluoro-2-[(1S)-2,2,2-trifluoro-1-methyl-ethoxy]pyridine-3-carboxamide] |
| 23 | 2.47 | CCn1c(CO)nn(-c2nc(O[C@@H](C)C(F)(F)F)c(C(=O)Nc3c(OC)n[nH]c3C)cc2F)c1=O [Example 121, 6-[4-Ethyl-3-(hydroxymethyl)-5-oxo-1,2,4-triazol-1-yl]-5-fluoro-N-(3-methoxy-5-methyl-1H-pyrazol-4-yl)-2-[(1S)-2,2,2-trifluoro-1-methyl-ethoxy]pyridine-3-carboxamide] |
| 0.84 | 3 | CCn1c(CO)nn(-c2nc(O[C@@H](C)C(F)(F)F)c(C(=O)Nc3c(C)n[nH]c3Cl)cc2F)c1=O [Example 25, (S)-N-(5-Chloro-3-methyl-1H-pyrazol-4-yl)-6-(4-ethyl-3-(hydroxymethyl)-5-oxo-4,5-dihydro-1H-1,2,4-triazol-1-yl)-5-fluoro-2-((1,1,1-trifluoropropan-2-yl)oxy)nicotinamide] |
| 1.2 | 1.3 | CCn1c(CO)nn(-c2nc(O[C@@H](C)C(F)(F)F)c(C(=O)Nc3c(F)cnc(OC)c3Cl)cc2F)c1=O [Example 30, (S)-N-(3-Chloro-5-fluoro-2-methoxypyridin-4-yl)-6-(4-ethyl-3-(hydroxymethyl)-5-oxo-4,5-dihydro-1H-1,2,4-triazol-1-yl)-5-fluoro-2-((1,1,1-trifluoropropan-2-yl)oxy)nicotinamide] |
